Experiments:
[1] = Dissociation constant, pKa of compound; type: physicochemical
[2] = target: T1, Bis(5'-adenosyl)-triphosphatase (Homo sapiens, UniProt P49789); assay: Inhibition of recombinant human FHIT incubated for 1hr in presence of tokyogreen-labeled CMP probe by fluorescence based analysis
[3] = Growth inhibition of human HCC827-luc cells incubated for 72 hrs by CCK-8 assay; type: functional
[4] = Growth inhibition of human NCI-H460-luc cells incubated for 72 hrs by CCK-8 assay; type: functional
[5] = target: T1, Bis(5'-adenosyl)-triphosphatase; assay: Inhibition of recombinant human FHIT assessed as reduction in AP3Aase activity measured after 45 mins by HPLC analysis
[6] = target: T1, Bis(5'-adenosyl)-triphosphatase; assay: Inhibition of human FHIT expressed in Escherichia coli BL21(DE3)-RIL cells using AP3A as substrate pretreated for 10 mins followed by substrate addition and measured after 1 hr by HPLC analysis

T1 sequence (P49789 whole entry): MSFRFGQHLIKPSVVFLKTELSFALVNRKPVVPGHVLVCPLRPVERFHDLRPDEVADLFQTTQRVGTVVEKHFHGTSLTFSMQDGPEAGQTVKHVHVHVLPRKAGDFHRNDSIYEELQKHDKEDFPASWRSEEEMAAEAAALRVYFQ

| SMILES | IC50 [2] | GI50 [3] | GI50 [4] | also measured |
| --- | --- | --- | --- | --- |
| Cc1cc(=O)oc2cc(O)c(F)cc12 | – | – | – | pKa [1]: 6.3 |
| O=c1cc(C(F)(F)F)c2cc(F)c(O)cc2o1 | – | – | – | pKa [1]: 5.6 |
| Cc1c(OCc2nn[nH]n2)ccc2c3c(c(=O)oc12)CCCC3 | 5 µM | > 100 µM | > 100 µM | – |
| Cc1c(OCc2nn[nH]n2)ccc2c3c(c(=O)oc12)CCC(C)C3 (configuration not stated) | 4.66 µM | – | – | – |
| COc1c(OCC(=O)NO)ccc2c3c(c(=O)oc12)CCCC3 | 2.8 µM | 5.3 µM | 29 µM | – |
| O=C(COc1cc2oc(=O)c3c(c2cc1Br)CCCC3)NO | 18 µM | – | – | – |
| NNC(=O)c1nn(-c2ccccc2)c(=O)cc1O | 3.98 µM | – | – | – |
| CN1C(=O)N/C(=C/c2cccn2-c2ccc(C(=O)O)cc2)C1=O | 0.77 µM | – | – | – |
| O=C(Cn1cc([N+](=O)[O-])ccc1=O)NC(=O)NCc1ccco1 | 3.43 µM | – | – | – |
| CCc1c(OCC(=O)NO)ccc2c3c(c(=O)oc12)CCCC3 | 5.3 µM | – | – | – |
| O=C(O)c1ccc2[nH]c(-c3ccnc(-c4cccnc4)c3)nc2c1 | 1.58 µM | – | – | – |
| Cc1ccccc1-c1c2ccc(=O)cc-2oc2cc(O)ccc12 | – | – | – | pKa [1]: 6.2 |
| Cc1c(OCC(=O)NO)ccc2c3c(c(=O)oc12)CCCC3 | 1.9 µM | 2.6 µM | 15 µM | IC50 [5]: 0.14 µM |
| O=C(COc1ccc2c3c(c(=O)oc2c1Br)CCCC3)NO | 0.12 µM | 0.87 µM | 5.9 µM | IC50 [5]: 0.06 µM |
| Cc1c(OCC(=O)O)ccc2c3c(c(=O)oc12)CCCC3 | 11 µM | > 100 µM | > 100 µM | – |
| O=C(O)c1ccc(/C=N/NC(=O)c2nc(-c3ccccc3)n(-c3ccccc3)n2)cc1 | 3.73 µM | – | – | – |
| CC1(C)CC(=O)C2=C(C1)NC1=C(C(=O)c3ccccc31)C2c1ccc(Br)cc1 (configuration not stated) | 8.8 µM | > 10 µM | > 10 µM | IC50 [5]: 23 µM; IC50 [6]: 0.049 µM |
| CC(=O)c1c(OCC(=O)NO)ccc2c3c(c(=O)oc12)CCCC3 | 8.1 µM | – | – | – |
| Cc1cc(=O)oc2c(C)c(OCC(=O)NO)ccc12 | 41 µM | 9.5 µM | 66 µM | – |
| O=C(COc1cc2oc(=O)c3c(c2cc1Cl)CCCC3)NO | 50 µM | – | – | – |
| NNC(=O)COc1ccc2c3c(c(=O)oc2c1Br)CCCC3 | 4 µM | > 100 µM | > 100 µM | – |
| O=C(COc1ccc2c3c(c(=O)oc2c1)CCCC3)NO | 5.5 µM | 0.99 µM | 13 µM | – |
| CCOC(=O)c1c(C)sc(N)c1C(=O)OCC | 1.01 µM | – | – | – |
| COCC(=O)N1CC[C@@H]2[C@H]1C(=O)NC[C@H](CCC(=O)OC)N2C | 4.24 µM | – | – | – |
| Cc1ccc(C(=O)Nc2ccc(S(=O)(=O)O)c3cc(S(=O)(=O)O)cc(S(=O)(=O)O)c23)cc1NC(=O)c1cccc(NC(=O)Nc2cccc(C(=O)Nc3cc(C(=O)Nc4ccc(S(=O)(=O)O)c5cc(S(=O)(=O)O)cc(S(=O)(=O)O)c45)ccc3C)c2)c1 [SURAMIN] | 50 µM | – | – | – |
